# Laboratory results as given in ChEMBL document CHEMBL3885861, “Open TG-GATES”.
# Species: Rattus norvegicus
# Assay: Open TG-GATES - Regimen: Daily Repeat
# Type: toxicity, organism-based, Sprague-Dawley
# Parameters: regimen Daily Repeat, gender Male, age 6 weeks
# Settings: in vivo, po, 0 mg/kg, route gavage, dose level Control; for APTT / Bas / Eos / Fbg / Hb / Ht / Lym / MCH / MCHC / MCV / Mono / Neu / PT / Plat / RBC / Ret / WBC: tissue Blood; for KIDNEY_L / KIDNEY_R / KIDNEY_TOTAL: tissue Kidney; for LIVER: tissue Liver; for A/G / ALP / ALT / AST / BUN / CRE / Ca / Cl / DBIL / GLC / IP / K / LDH / Na / PL / RALB / TBIL / TC / TG / TP / gamma-GTP: tissue Plasma
compound,measurement,setting,value
O=C1CN(/N=C/c2ccc([N+](=O)[O-])o2)C(=O)N1 [NITROFURANTOIN],TERMINAL_BW,"72 h, time 3 day",244.1 g
same,APTT,"72 h, time 3 day",19.2 s
same,Bas,"72 h, time 3 day",0%
same,Eos,"72 h, time 3 day",1%
same,Fbg,"72 h, time 3 day",219 mg/dL
same,Hb,"72 h, time 3 day",13.7 g/dL
same,Ht,"72 h, time 3 day",39.1%
same,Lym,"72 h, time 3 day",80.6%
same,MCH,"72 h, time 3 day",22 pg
same,MCHC,"72 h, time 3 day",35.1%
same,MCV,"72 h, time 3 day",62.8 fL
same,Mono,"72 h, time 3 day",3%
same,Neu,"72 h, time 3 day",13.8%
same,PT,"72 h, time 3 day",12.3 s
same,Plat,"72 h, time 3 day",134.3 x10_4/uL
same,RBC,"72 h, time 3 day",622.8 x10_4/ul
same,Ret,"72 h, time 3 day",6.3%
same,WBC,"72 h, time 3 day",116.2 x10_2/uL
same,KIDNEY_L,"72 h, time 3 day",1 g
same,KIDNEY_R,"72 h, time 3 day",1.1 g
same,KIDNEY_TOTAL,"72 h, time 3 day",2.1 g
same,LIVER,"72 h, time 3 day",12.1 g
same,A/G,"72 h, time 3 day",1.5
same,ALP,"72 h, time 3 day",885 IU/L
same,ALT,"72 h, time 3 day",35.6 IU/L
same,AST,"72 h, time 3 day",68.6 IU/L
same,BUN,"72 h, time 3 day",16.2 mg/dL
same,CRE,"72 h, time 3 day",0.4 mg/dL
same,Ca,"72 h, time 3 day",10.8 mg/dL
same,Cl,"72 h, time 3 day",101 meq/L
same,DBIL,"72 h, time 3 day",0.1 mg/dL
same,GLC,"72 h, time 3 day",233.2 mg/dL
same,IP,"72 h, time 3 day",7.2 mg/dL
same,K,"72 h, time 3 day",3.7 meq/L
same,LDH,"72 h, time 3 day",200.8 IU/L
same,Na,"72 h, time 3 day",140 meq/L
same,PL,"72 h, time 3 day",166.6 mg/dL
same,RALB,"72 h, time 3 day",3.4 g/dL
same,TBIL,"72 h, time 3 day",0.2 mg/dL
same,TC,"72 h, time 3 day",77.6 mg/dL
same,TG,"72 h, time 3 day",139.8 mg/dL
same,TP,"72 h, time 3 day",5.6 g/dL
same,gamma-GTP,"72 h, time 3 day",1 IU/L
same,TERMINAL_BW,"[…], time 7 day",274 g
same,TERMINAL_BW,"[…], time 14 day",331.5 g
same,TERMINAL_BW,"[…], time 28 day",422.1 g
same,APTT,"[…], time 7 day",19.9 s
same,Bas,"[…], time 7 day",0%
same,Eos,"[…], time 7 day",0.8%
same,Fbg,"[…], time 7 day",227.8 mg/dL
same,Hb,"[…], time 7 day",14.1 g/dL
same,Ht,"[…], time 7 day",40.2%
same,Lym,"[…], time 7 day",80.6%
same,MCH,"[…], time 7 day",21.5 pg
same,MCHC,"[…], time 7 day",35.2%
same,MCV,"[…], time 7 day",61.2 fL
same,Mono,"[…], time 7 day",2.6%
same,Neu,"[…], time 7 day",14.6%
same,PT,"[…], time 7 day",12.5 s
same,Plat,"[…], time 7 day",135 x10_4/uL
same,RBC,"[…], time 7 day",657.2 x10_4/ul
same,Ret,"[…], time 7 day",5.4%
same,WBC,"[…], time 7 day",123.7 x10_2/uL
same,APTT,"[…], time 14 day",20.1 s
same,Bas,"[…], time 14 day",0%
same,Eos,"[…], time 14 day",0.6%
same,Fbg,"[…], time 14 day",227.4 mg/dL
same,Hb,"[…], time 14 day",14.6 g/dL
same,Ht,"[…], time 14 day",41.5%
same,Lym,"[…], time 14 day",77.4%
same,MCH,"[…], time 14 day",20.3 pg
same,MCHC,"[…], time 14 day",35.1%
same,MCV,"[…], time 14 day",57.7 fL
same,Mono,"[…], time 14 day",1.8%
same,Neu,"[…], time 14 day",18.8%
same,PT,"[…], time 14 day",12.3 s
same,Plat,"[…], time 14 day",117.4 x10_4/uL
same,RBC,"[…], time 14 day",718.6 x10_4/ul
same,Ret,"[…], time 14 day",4.4%
same,WBC,"[…], time 14 day",127.2 x10_2/uL
same,APTT,"[…], time 28 day",21.4 s
same,Bas,"[…], time 28 day",0%
same,Eos,"[…], time 28 day",1%
same,Fbg,"[…], time 28 day",227 mg/dL
same,Hb,"[…], time 28 day",15 g/dL
same,Ht,"[…], time 28 day",42.7%
same,Lym,"[…], time 28 day",84%
same,MCH,"[…], time 28 day",19.8 pg
same,MCHC,"[…], time 28 day",35%
same,MCV,"[…], time 28 day",56.4 fL
same,Mono,"[…], time 28 day",1.6%
same,Neu,"[…], time 28 day",12.4%
same,PT,"[…], time 28 day",12.4 s
same,Plat,"[…], time 28 day",107.4 x10_4/uL
same,RBC,"[…], time 28 day",757.4 x10_4/ul
same,Ret,"[…], time 28 day",2.4%
same,WBC,"[…], time 28 day",107.5 x10_2/uL
same,KIDNEY_L,"[…], time 7 day",1.2 g
same,KIDNEY_R,"[…], time 7 day",1.2 g
same,KIDNEY_TOTAL,"[…], time 7 day",2.4 g
same,KIDNEY_L,"[…], time 14 day",1.3 g
same,KIDNEY_R,"[…], time 14 day",1.3 g
same,KIDNEY_TOTAL,"[…], time 14 day",2.6 g
same,KIDNEY_L,"[…], time 28 day",1.5 g
same,KIDNEY_R,"[…], time 28 day",1.5 g
same,KIDNEY_TOTAL,"[…], time 28 day",2.9 g
same,LIVER,"[…], time 7 day",13 g
same,LIVER,"[…], time 14 day",14.5 g
same,LIVER,"[…], time 28 day",17.7 g
same,A/G,"[…], time 7 day",1.5
same,ALP,"[…], time 7 day",943.4 IU/L
same,ALT,"[…], time 7 day",32.8 IU/L
same,AST,"[…], time 7 day",63.2 IU/L
same,BUN,"[…], time 7 day",16.4 mg/dL
same,CRE,"[…], time 7 day",0.4 mg/dL
same,Ca,"[…], time 7 day",10.8 mg/dL
same,Cl,"[…], time 7 day",101 meq/L
same,DBIL,"[…], time 7 day",0.1 mg/dL
same,GLC,"[…], time 7 day",192.8 mg/dL
same,IP,"[…], time 7 day",6.9 mg/dL
same,K,"[…], time 7 day",4.4 meq/L
same,LDH,"[…], time 7 day",238.6 IU/L
same,Na,"[…], time 7 day",139.8 meq/L
same,PL,"[…], time 7 day",166.8 mg/dL
same,RALB,"[…], time 7 day",3.5 g/dL
same,TBIL,"[…], time 7 day",0.2 mg/dL
same,TC,"[…], time 7 day",79.4 mg/dL
same,TG,"[…], time 7 day",141 mg/dL
same,TP,"[…], time 7 day",5.8 g/dL
same,gamma-GTP,"[…], time 7 day",0.6 IU/L
same,A/G,"[…], time 14 day",1.4
same,ALP,"[…], time 14 day",818 IU/L
same,ALT,"[…], time 14 day",34.4 IU/L
same,AST,"[…], time 14 day",60.6 IU/L
same,BUN,"[…], time 14 day",16.6 mg/dL
same,CRE,"[…], time 14 day",0.4 mg/dL
same,Ca,"[…], time 14 day",10.4 mg/dL
same,Cl,"[…], time 14 day",101.6 meq/L
same,DBIL,"[…], time 14 day",0.1 mg/dL
same,GLC,"[…], time 14 day",218.2 mg/dL
same,IP,"[…], time 14 day",6.7 mg/dL
same,K,"[…], time 14 day",3.7 meq/L
same,LDH,"[…], time 14 day",189.6 IU/L
same,Na,"[…], time 14 day",140 meq/L
same,PL,"[…], time 14 day",153.2 mg/dL
same,RALB,"[…], time 14 day",3.4 g/dL
same,TBIL,"[…], time 14 day",0.2 mg/dL
same,TC,"[…], time 14 day",66.4 mg/dL
same,TG,"[…], time 14 day",148.8 mg/dL
same,TP,"[…], time 14 day",5.9 g/dL
same,gamma-GTP,"[…], time 14 day",1 IU/L
same,A/G,"[…], time 28 day",1.3
same,ALP,"[…], time 28 day",551.8 IU/L
same,ALT,"[…], time 28 day",32.8 IU/L
same,AST,"[…], time 28 day",54.8 IU/L
same,BUN,"[…], time 28 day",16.6 mg/dL
same,CRE,"[…], time 28 day",0.5 mg/dL
same,Ca,"[…], time 28 day",10.4 mg/dL
same,Cl,"[…], time 28 day",102.4 meq/L
same,DBIL,"[…], time 28 day",0.1 mg/dL
same,GLC,"[…], time 28 day",218 mg/dL
same,IP,"[…], time 28 day",6.5 mg/dL
same,K,"[…], time 28 day",3.6 meq/L
same,LDH,"[…], time 28 day",125 IU/L
same,Na,"[…], time 28 day",140 meq/L
same,PL,"[…], time 28 day",162.4 mg/dL
same,RALB,"[…], time 28 day",3.4 g/dL
same,TBIL,"[…], time 28 day",0.2 mg/dL
same,TC,"[…], time 28 day",78.4 mg/dL
same,TG,"[…], time 28 day",139.2 mg/dL
same,TP,"[…], time 28 day",6.1 g/dL
same,gamma-GTP,"[…], time 28 day",1.2 IU/L
